# Results reported in patent publication US8853412B2, “Pyrrolidinone derivatives as GPR119 modulators for the treatment of diabetes, obesity, dyslipidemia and related disorders” (Sanofi, priority 2012, dated 2014).
# pEC50: −log10 of the molar value.
# Biological target: T1, human GPR119 (Homo sapiens, UniProt Q8TDV5)
# T1 construct: expressed in transfected cells; host or cells: HEK-293 cell line stably expressing recombinant GPR119
# T1 sequence (Q8TDV5 1-335): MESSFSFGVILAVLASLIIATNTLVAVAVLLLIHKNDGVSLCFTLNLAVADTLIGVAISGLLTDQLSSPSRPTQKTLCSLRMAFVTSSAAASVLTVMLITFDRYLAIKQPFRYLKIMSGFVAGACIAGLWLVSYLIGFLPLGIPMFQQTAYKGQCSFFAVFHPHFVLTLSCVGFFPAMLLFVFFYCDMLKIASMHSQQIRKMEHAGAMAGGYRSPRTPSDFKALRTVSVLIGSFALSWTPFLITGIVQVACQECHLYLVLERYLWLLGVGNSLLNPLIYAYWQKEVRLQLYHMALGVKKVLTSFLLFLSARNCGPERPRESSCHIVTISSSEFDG
# Assay: Functional cellular assay measuring GPR119-mediated cAMP release (HTRF), HEK-293 cells stably expressing recombinant GPR119
# Assay type: cell-based
# Settings: cell line expressing human GPR119; cAMP response, 30 minutes at room temperature
# Procedure: Functional Cellular Assays Measuring GPR119-Mediated cAMP Release.
# Compounds of the invention, which are agonists of GPR119, were characterized by functional assays measuring the cAMP response of HEK-293 cell lines stably expressing recombinant GPR119 from man, mouse or rat, or by using a hamster cell line HIT-T15 expressing GPR119 endogenously. The cAMP content was determined using a kit based on homogenous time-resolved fluorescence (HTRF) from Cisbio Corp. (cat. no. 62AM4PEC). For preparation, cells were split into T175 culture flasks and grown to near confluency in medium (DMEM/10% FCS for HEK-293 cells, and F-12K medium/10% horse serum/2.5% FCS for HIT-T15 cells, respectively). Medium was then removed and cells washed with PBS lacking calcium and magnesium ions, followed by proteinase treatment with accutase (Sigma-Aldrich, cat. no. A6964). Detached cells were washed and resuspended in assay buffer (1×HBSS; 20 mM HEPES, 0.1% BSA, 2 mM IBMX) and cellular density determined. They were then diluted to 400000 cells/mL and 25 μL-aliquots dispensed to the wells of 96-well plates. For measurement, 25 μL of test compound in assay buffer was added and incubated for 30 minutes at room temperature. After addition of HTRF reagents diluted in lysis buffer, the plates were incubated for 1 hour, followed by measuring the fluorescence ratio at 665 vs. 620 nm. Potency of the agonists was quantified by determining the concentrations that caused 50% of the maximal response/activation (EC50). See Table 10 for exemplary data obtained using the cell line expressing human GPR119.
row,pEC50,Structure (SMILES)
1,7.74,Cc1cc(O[C@@H]2CCN(c3cc(F)c4c(c3)C(=O)CC4)C2=O)cnc1OCC1CC1 [Example 3-10]
2,7.14,CC(C)Oc1cc(O[C@@H]2CCN(c3cc(F)c4c(c3)C(=O)CC4)C2=O)ccn1 [Example 5-08]
3,7.72,O=C1CCc2c(F)cc(N3CC[C@@H](Oc4ccc(SC5CC5)nc4)C3=O)cc21 [Example 3-16]
4,6.90,COCCCOc1cc(O[C@@H]2CCN(c3cc(F)c4c(c3)C(=O)CC4)C2=O)ccn1 [Example 5-09]
5,6.72,CCCCOc1cc(O[C@@H]2CCN(c3cc(F)c4c(c3)C(=O)CC4)C2=O)ccn1 [Example 5-02]
6,< 4.00,CN(C)C(=O)c1cc(O[C@@H]2CCN(c3cc(F)c4c(c3)C(=O)CC4)C2=O)cnc1OCC1CC1 [Example 8-03]
7,7.01,N#Cc1cc(N2CC[C@@H](Oc3ccc(OCC4CC4)nc3)C2=O)cc2c1CCC2=O [Example 4-03]
8,7.16,O=C1CCc2c(F)cc(N3CC[C@@H](Oc4ccc(OC5CC5)nc4)C3=O)c(F)c21 [Example 9-02]
9,5.70,CCOc1ccc(O[C@H]2CCN(c3cc(F)c4c(c3)C(=O)CC4)C2=O)cn1 [Example 3-21]
10,6.01,CCCCN(C)C(=O)c1ccc(O[C@@H]2CCN(c3cc(F)c4c(c3)C(=O)CC4)C2=O)cn1 [Example 3-06]
11,6.85,CC(C)c1noc(-c2ccc(O[C@@H]3CCN(c4cc(F)c5c(c4)C(=O)CC5)C3=O)cn2)n1 [Example 3-02]
12,6.77,CCOc1cc(O[C@@H]2CCN(c3cc(F)c4c(c3)C(=O)CC4)C2=O)ccn1 [Example 5-04]
13,7.92,O=C1CCc2c(F)cc(N3CC[C@@H](Oc4cnc(OCC5CC5)c(F)c4)C3=O)cc21 [Example 3-09]
14,7.19,COC(=O)c1cc(O[C@@H]2CCN(c3cc(F)c4c(c3)C(=O)CC4)C2=O)cnc1OCC1CC1 [Example 8-01]
15,7.92,O=C1CCc2c(F)cc(N3CC[C@@H](Oc4cnc(OCC5CC5)c(Br)c4)C3=O)cc21 [Example 3-19]
16,7.55,O=C1CCc2c(F)cc(N3CC[C@@H](Oc4ccnc(OC5CCC5)c4)C3=O)cc21 [Example 5-10]
17,7.52,O=C1CCc2c(F)cc(N3CC[C@@H](Oc4ccnc(OCC(F)(F)F)c4)C3=O)cc21 [Example 5-07]
18,6.86,O=C(OCC1CC1)c1ccc(O[C@@H]2CCN(c3cc(F)c4c(c3)C(=O)CC4)C2=O)cn1 [Example 3-04]
19,7.21,Cc1cnc(-c2ccc(O[C@@H]3CCN(c4cc(F)c5c(c4)C(=O)CC5)C3=O)cn2)s1 [Example 3-03]

# Further lines, the molecule ahead of its results:
row,Structure (SMILES),pEC50
1,CCCCOc1ccc(O[C@@H]2CCN(c3cc(F)c4c(c3)C(=O)CC4)C2=O)cn1 [Example 2-02],7.57
2,O=C1CCc2c(F)cc(N3CC[C@@H](Oc4ccc(OCCn5cccn5)nc4)C3=O)cc21 [Example 2-21],6.34
3,O=C1CCc2ccc(N3CC[C@@H](Oc4ccc(OCCC5CC5)nc4)C3=O)cc21 [Example 1-09],7.19
4,O=C1CCc2c(F)cc(N3CC[C@@H](Oc4ccc(OC5CCCC5)nc4)C3=O)cc21 [Example 2-63],8.30
5,"O=C1CCc2c(F)cc(N3CC[C@@H](Oc4ccc(OCCC5CC5)nc4)C3=O)cc21 [Example 1-08, (R)-3-[6-(2-Cyclopropyl-ethoxy)-pyridin-3-yloxv]-1-(7-fluoro-3-oxo-indan-5-yl)-pyrrolidin-2-one]",8.10
6,O=C1CCCc2ccc(N3CC[C@@H](Oc4ccc(OCCC5CC5)nc4)C3=O)cc21 [Example 1-10],6.16
7,O=C1CCc2ccc(N3CC[C@@H](Oc4ccc(Oc5ccccc5)cc4)C3=O)cc21 [Example 1-04],6.84
8,O=C1CCc2c(F)cc(N3CC[C@@H](Oc4ccc(OCC(F)(F)F)nc4)C3=O)cc21 [Example 2-77],7.36
9,CC(C)(CO)COc1ccc(O[C@@H]2CCN(c3cc(F)c4c(c3)C(=O)CC4)C2=O)cn1 [Example 2-04],6.63
10,CCC(C)Oc1ccc(O[C@@H]2CCN(c3cc(F)c4c(c3)C(=O)CC4)C2=O)cn1 (stereo partly shown) [Example 2-14],7.92
11,O=C1CCc2c(F)cc(N3CC[C@@H](Oc4ccc(OCc5cccnc5)nc4)C3=O)cc21 [Example 2-31],5.83
12,O=C1CCc2c(F)cc(N3CC[C@@H](Oc4ccc(OCCCCO)nc4)C3=O)cc21 [Example 2-16],6.08
13,O=C1CCc2c(F)cc(N3CC[C@@H](Oc4ccc(O[C@@H]5CCOC5)nc4)C3=O)cc21 [Example 2-76],7.03
14,O=C1CCc2ccc(N3CC[C@@H](Oc4ccc(OCC5CC5)nc4)C3=O)cc21 [Example 1-12],6.49
15,O=C1CCc2c(F)cc(N3CC[C@@H](Oc4ccc(OCC5CCC5)nc4)C3=O)cc21 [Example 2-55],8.15
16,CC1CC1COc1ccc(O[C@@H]2CCN(c3cc(F)c4c(c3)C(=O)CC4)C2=O)cn1 (stereo partly shown) [Example 2-26],7.96
17,CC(C)Sc1ccc(O[C@@H]2CCN(c3cc(F)c4c(c3)C(=O)CC4)C2=O)cn1 [Example 1-14],7.48
18,CC(CCO)CCOc1ccc(O[C@@H]2CCN(c3cc(F)c4c(c3)C(=O)CC4)C2=O)cn1 (stereo partly shown) [Example 2-50],5.98

row,Structure (SMILES),pEC50
1,O=C1CCc2c(F)cc(N3CC[C@@H](Oc4ccc(OCCn5ccnc5)nc4)C3=O)cc21 [Example 2-36],4.35
2,O=C1CC[C@H](COc2ccc(O[C@@H]3CCN(c4cc(F)c5c(c4)C(=O)CC5)C3=O)cn2)O1 [Example 2-38],6.02
3,O=C1CCc2c(F)cc(N3CC[C@@H](Oc4ccc(-c5ncc(CO)s5)nc4)C3=O)cc21 [Example 1-16],5.42
4,O=C1CCc2c(F)cc(N3CC[C@@H](Oc4ccc(OCc5ccncc5)nc4)C3=O)cc21 [Example 2-28],5.85
5,CCSc1ccc(O[C@@H]2CCN(c3cc(F)c4c(c3)C(=O)CC4)C2=O)cn1 [Example 1-15],7.15
6,O=C1CCc2c(F)cc(N3CC[C@@H](Oc4ccc(OCc5cnccn5)nc4)C3=O)cc21 [Example 2-52],5.92
7,Cn1cc(COc2ccc(O[C@@H]3CCN(c4cc(F)c5c(c4)C(=O)CC5)C3=O)cn2)cn1 [Example 2-71],5.60
8,O=C1CCc2c(F)cc(N3CC[C@@H](Oc4ccc(OCCN5CCCC5)nc4)C3=O)cc21 [Example 2-67],4.82
9,O=C1CCc2c(F)cc(N3CC[C@@H](Oc4ccc(OC5CCCCC5)nc4)C3=O)cc21 [Example 2-66],7.80
10,O=C1CCc2c(F)cc(N3CC[C@@H](Oc4ccc(OCCCCCO)nc4)C3=O)cc21 [Example 2-65],5.62
11,Cc1cc(COc2ccc(O[C@@H]3CCN(c4cc(F)c5c(c4)C(=O)CC5)C3=O)cn2)no1 [Example 2-41],6.44
12,CC(C)COc1ccc(O[C@@H]2CCN(c3cc(F)c4c(c3)C(=O)CC4)C2=O)cn1 [Example 2-23],8.15
13,O=C1CCc2c(F)cc(N3CC[C@@H](Oc4ccc(OC5CCC5)nc4)C3=O)cc21 [Example 2-72],7.80
14,CSc1ccc(O[C@@H]2CCN(c3cc(F)c4c(c3)C(=O)CC4)C2=O)cn1 [Example 1-13],6.43
15,O=C1CCc2c(F)cc(N3CC[C@@H](Oc4ccc(OC5CCC(O)C5)nc4)C3=O)cc21 (stereo partly shown) [Example 2-19],6.07
16,O=C1CCc2c(F)cc(N3CC[C@@H](Oc4ccc(OC5CCCOC5)nc4)C3=O)cc21 (stereo partly shown) [Example 2-79],7.19
17,COC(C)CCOc1ccc(O[C@@H]2CCN(c3cc(F)c4c(c3)C(=O)CC4)C2=O)cn1 (stereo partly shown) [Example 2-33],7.15
18,O=C1CCc2c(F)cc(N3CC[C@@H](Oc4ccc(OCCCF)nc4)C3=O)cc21 [Example 2-61],7.82
